Data: ChEMBL document CHEMBL3244408, “Synthesis and analgetic activity of some benzomorphan analogues” (1978)

Tested on: Mus musculus
Assay: Analgetic activity in sc dosed albino DD mouse by tail pressure stimuli method
Assay type: functional

| SMILES | ED50 [mg/kg] |
| --- | --- |
| Br.CN1CC2CC1Cc1ccc(O)cc12 (stereo unspecified) | 43 |
| Br.CN1CCC2Cc3ccc(O)cc3C(C2)C1 (stereo unspecified) | 38.8 |
| CN1CC[C@]23c4c5ccc(O)c4O[C@H]2[C@@H](O)C=C[C@H]3[C@H]1C5.Cl [MORPHINE HYDROCHLORIDE] | 1.2 |
| CN1CCCC2Cc3ccc(O)cc3C1C2.Cl.O (stereo unspecified) | 15 |
| COc1ccc2c3c1O[C@H]1[C@@H](O)C=C[C@H]4[C@@H](C2)N(C)CC[C@@]341.COc1ccc2c3c1O[C@H]1[C@@H](O)C=C[C@H]4[C@@H](C2)N(C)CC[C@@]341.O.O=P(O)(O)O.O=P(O)(O)O [CODEINE PHOSPHATE] | 9.2 |
| Br.C[C@@H]1C2Cc3ccc(O)cc3C1(C)CCN(C)C2 (stereo partly specified) | 1 |
| CC(O)C(=O)O.CN1CC2Cc3ccc(O)cc3C1C2 (stereo unspecified) | 29.1 |
| CN1CCC2Cc3ccc(O)cc3C1C2 (stereo unspecified) | 17.2 |
| Br.CN1CCCC2(C)CC1Cc1ccc(O)cc12 (stereo unspecified) | 4.1 |
| CC1NCC2Cc3ccc(O)cc3C1C2 (stereo unspecified) | 4.5 |
| Br.CN1CC2Cc3ccc(O)cc3C(C)(C2)C1 (stereo unspecified) | 8.4 |
